Earlier results on one substance are cited in article PMC6525986 (Theranostics, 2019).

One may read the IC50 as the concentration needed to halve the response being measured.

The series addresses protein arginine methyltransferase 5 (PRMT5) (Homo sapiens, UniProt O14744). Briefly: PRMT5 enzymatic inhibition assay. Format: biochemical.

Chain of protein arginine methyltransferase 5 (PRMT5) (O14744 2-637): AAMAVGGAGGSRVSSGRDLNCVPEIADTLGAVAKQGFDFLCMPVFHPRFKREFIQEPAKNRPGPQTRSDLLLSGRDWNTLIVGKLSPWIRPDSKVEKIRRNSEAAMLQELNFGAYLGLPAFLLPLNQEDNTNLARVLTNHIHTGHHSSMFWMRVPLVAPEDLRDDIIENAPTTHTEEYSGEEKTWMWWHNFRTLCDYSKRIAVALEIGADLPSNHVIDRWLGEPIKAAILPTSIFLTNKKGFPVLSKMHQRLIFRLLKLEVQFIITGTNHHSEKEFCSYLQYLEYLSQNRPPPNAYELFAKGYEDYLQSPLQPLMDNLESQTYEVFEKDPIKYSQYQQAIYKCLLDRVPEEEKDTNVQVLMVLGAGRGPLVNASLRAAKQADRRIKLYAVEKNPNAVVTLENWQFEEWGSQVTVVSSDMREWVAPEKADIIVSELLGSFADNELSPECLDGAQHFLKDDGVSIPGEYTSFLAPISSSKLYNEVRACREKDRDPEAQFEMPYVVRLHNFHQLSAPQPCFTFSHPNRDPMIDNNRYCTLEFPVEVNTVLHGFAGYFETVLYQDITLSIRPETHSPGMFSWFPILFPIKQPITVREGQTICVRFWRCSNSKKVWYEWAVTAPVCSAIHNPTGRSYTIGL

In the case of DW14800 [compound 39], the IC50 was 17 nM.
